Activity calls are given as the source filed them. The rule behind the calls is not given here. Where a SMILES comes first, the peptide text is derived from it.
What was measured:
[1] = target: T1, Proteinase-activated receptor 2 (Homo sapiens, UniProt P55085); test: Antagonist activity at PAR2 in human HT-29 cells assessed as inhibition of 2f-LIGRLO-NH2-stimulated intracellular calcium release preincubated for 30 mins followed by 2f-LIGRLO-NH2 stimulation measured for 60 sec by Fluo-3 AM dye based FLIPR assay; assay type: functional, cell-based
T1 sequence (P55085 whole entry): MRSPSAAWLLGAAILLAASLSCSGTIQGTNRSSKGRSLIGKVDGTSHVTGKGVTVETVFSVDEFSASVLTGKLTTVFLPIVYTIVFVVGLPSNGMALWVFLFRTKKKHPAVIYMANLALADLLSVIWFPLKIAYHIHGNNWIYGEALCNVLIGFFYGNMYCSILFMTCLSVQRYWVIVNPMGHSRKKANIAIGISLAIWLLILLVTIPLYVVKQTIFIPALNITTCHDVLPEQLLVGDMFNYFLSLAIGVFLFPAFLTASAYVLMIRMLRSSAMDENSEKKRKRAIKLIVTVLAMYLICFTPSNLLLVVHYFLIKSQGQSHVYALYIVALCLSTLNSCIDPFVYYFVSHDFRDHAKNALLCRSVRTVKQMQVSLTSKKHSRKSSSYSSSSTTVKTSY

[2] = target: Proteinase-activated receptor 2 (Homo sapiens) (UniProt P55085); test: Antagonist activity at PAR2 in human HT-29 cells assessed as inhibition of 2f-LIGRLO-NH2-stimulated intracellular calcium release at 10 uM preincubated for 30 mins followed by 2f-LIGRLO-NH2 stimulation measured for 60 secs by Fluo-3 AM dye based FLIPR assay relative to control; assay type: functional, cell-based
[3] = target: Proteinase-activated receptor 2 (Homo sapiens) (UniProt P55085); test: Agonist activity at PAR2 in human HT-29 cells assessed as increase in intracellular calcium release at 10 uM incubated for 30 mins measured for 60 secs by Fluo-3 AM dye based FLIPR assay relative to 2f-LIGRLO-NH2; assay type: functional, cell-based
[4] = target: T1, Proteinase-activated receptor 2; test: Antagonist activity at PAR2 in human HT-29 cells assessed as inhibition of endogenous trypsin-stimulated intracellular calcium release by Fluo-3 AM dye based FLIPR assay; assay type: functional, cell-based
[5] = Elimination half life in Wistar rat liver homogenate at 10 uM by LC/MS/MS analysis; assay type: ADME, tissue-based; settings: read-out: beta t1/2
[6] = Stability in Wistar rat plasma at 10 uM measured up to 3 hrs by LC/MS/MS analysis; assay type: ADME, cell-free; settings: read-out: Stability
[7] = Solubility of compound; assay type: physicochemical
[8] = target: T1, Proteinase-activated receptor 2; test: Agonist activity at PAR2 in human HT-29 cells assessed as increase in intracellular calcium release incubated for 30 mins measured for 60 secs by Fluo-3 AM dye based FLIPR assay relative to 2f-LIGRLO-NH2; assay type: functional, cell-based
[9] = tested on: Rattus norvegicus; test: Antiinflammatory activity in Wistar rat acute paw edema model assessed as inhibition of 2f-LIGRLO-NH2-induced […] swelling at 10 mg/kg administered via oral gavage for 2 hrs followed by 2f-LIGRLO-NH2 addition measured up to 3 hrs; assay type: functional, organism-based
[10] = Time at which maximum plasma concentration stays above 2 times in vitro PAR2 IC50 in Wistar rat at 10 mg/kg, po administered via gavage; assay type: ADME, organism-based; settings: in vivo
[11] = AUC (0 to 6 hrs) in Wistar rat at 10 mg/kg, po administered via gavage; assay type: ADME, organism-based; design: time < 6 hr, dose 10 mg/kg, route oral; settings: in vivo
[12] = Half life in Wistar rat plasma at 10 uM by LC/MS/MS analysis; assay type: ADME, cell-free

| inhibition [2] | Activity [3] | SMILES | also measured |
| --- | --- | --- | --- |
| 77% |  | CC[C@H](C)[C@H](NC(=O)[C@H](CC1CCCCC1)NC(=O)c1ccno1)C(=O)N1CCC2(CCc3ccccc3O2)CC1 | IC50 ([1]; read-out: IC50): 1900 nM |
|  | 26% | CC[C@H](C)[C@H](NC(=O)[C@H](CC1CCCCC1)NC(=O)c1cc(N)n[nH]1)C(=O)N1CCC2(C=Cc3ccccc32)CC1 |  |
|  | 11% | NCC[C@H](NC(=O)[C@H](CC1CCCCC1)NC(=O)c1ccno1)C(=O)N1CCC2(C=Cc3ccccc32)CC1 |  |
| 92% |  | CC[C@H](C)[C@H](NC(=O)[C@H](CC1CCCCC1)NC(=O)c1ccno1)C(=O)N1CCC2(C=Cc3ccccc32)CC1 | IC50 ([1]; read-out: IC50): 1100 to 1700 nM; IC50 ([1]; read-out: pIC50 (converted)): 1580 nM; IC50 [4]: 3600 nM; half-life at 10 µM [5]: 60 min; remaining at 3 h, 10 µM [6]: > 75% |
| 62% |  | CC[C@H](C)[C@H](NC(=O)[C@H](CC1CCCCC1)NC(=O)c1cc(CN)no1)C(=O)N1CCC2(C=Cc3ccccc32)CC1 | IC50 ([1]; read-out: IC50): 8900 nM; IC50 ([1]; read-out: pIC50 (converted)): 10000 nM; solubility [7]: Soluble |
|  | 62 to 70% | CC[C@H](C)[C@H](NC(=O)[C@H](CC1CCCCC1)NC(=O)c1ccno1)C(=O)N1CCC2(CC1)OC(=O)c1ccccc12 | EC50 [8]: 700 to 1800 nM |
|  | 53 to 81% | CO[C@H](C)[C@H](NC(=O)[C@H](CC1CCCCC1)NC(=O)c1ccno1)C(=O)N1CCC2(C=Cc3ccccc32)CC1 |  |
| 43 to 69% |  | CC[C@H](C)[C@H](NC(=O)[C@H](CC1CCCCC1)NC(=O)c1ccno1)C(=O)N1CCC(c2ccc(Cl)cc2)CC1 |  |
|  | 53 to 81% | O=C(N[C@@H](CC1CCCCC1)C(=O)N[C@@H](Cc1cnc[nH]1)C(=O)N1CCC2(C=Cc3ccccc32)CC1)c1ccno1 |  |
| 43% |  | CC[C@H](C)[C@H](NC(=O)[C@H](CC1CCCCC1)NC(=O)c1nc[nH]n1)C(=O)N1CCC2(C=Cc3ccccc32)CC1 |  |
| 38% |  | CC[C@H](C)[C@H](NC(=O)[C@H](CC1CCCCC1)NC(=O)c1ccno1)C(=O)N1CC[C@H]2CCCC[C@H]2[C@H]1C(=O)NC(C)(C)C |  |
| 91% |  | CC[C@H](C)[C@H](NC(=O)[C@H](CC1CCCCC1)NC(=O)c1cc(N)no1)C(=O)N1CCC2(C=Cc3ccccc32)CC1 | inhibition [9]: Active; solubility [7]: Soluble; half-life at 10 µM [5]: 15 min; remaining at 3 h, 10 µM [6]: > 75% |
| 10 to 16% |  | CC(C)(NC(=O)[C@H](CC1CCCCC1)NC(=O)c1ccno1)C(=O)N1CCC2(C=Cc3ccccc32)CC1 |  |
|  | 81% | CC[C@H](C)[C@H](NC(=O)[C@H](CC1CCCCC1)NC(=O)c1ccno1)C(=O)N1CCC(NC(C)=O)(c2ccccc2)CC1 |  |
| 64% |  | CC[C@H](C)[C@H](NC(=O)[C@H](CC1CCCCC1)NC(=O)c1ccno1)C(=O)N1CCCC[C@H]1C(=O)NC(C)(C)C |  |
| 27% | 21% | CC[C@H](C)[C@H](NC(=O)[C@H](CC1CCCCC1)NC(=O)c1ccon1)C(=O)N1CCC2(C=Cc3ccccc32)CC1 |  |
|  | 65% | CC[C@H](C)[C@H](NC(=O)[C@H](CC1CCCCC1)NC(=O)c1ccno1)C(=O)N1CCc2cc(OC)c(OC)cc2C1 |  |

| inhibition [2] | Activity [3] | SMILES | also measured |
| --- | --- | --- | --- |
| 53% |  | CC[C@H](C)[C@H](NC(=O)[C@H](CC1CCCCC1)NC(=O)c1c[nH]cn1)C(=O)N1CCC2(C=Cc3ccccc32)CC1 | IC50 ([1]; read-out: IC50): 3100 nM; solubility [7]: Soluble |
| 93% |  | CC[C@H](C)[C@H](NC(=O)[C@H](CC1CCCCC1)NC(=O)c1ccno1)C(=O)N1CCC(c2ccccc2)CC1 | inhibition [9]: Active; Time [10]: 2 to 3 h; AUC(0-t) at 6 h [11]: 1960 ng·h/mL; half-life at 10 µM [5]: 30 min; remaining at 3 h, 10 µM [6]: > 75% |
|  | 65% | CC[C@H](C)[C@H](NC(=O)[C@H](CC1CCCCC1)NC(=O)c1ccno1)C(=O)N1CCC2(CC1)c1ccccc1C1OC12 (some centres undefined) | EC50 [8]: 700 to 1800 nM |
| 43 to 69% |  | CC[C@H](C)[C@H](NC(=O)[C@H](CC1CCCCC1)NC(=O)c1ccno1)C(=O)N1CCC(c2ccc(OC)cc2)CC1 |  |
|  | 53 to 81% | C[C@@H](O)[C@H](NC(=O)[C@H](CC1CCCCC1)NC(=O)c1ccno1)C(=O)N1CCC2(C=Cc3ccccc32)CC1 |  |
| 70% |  | CC[C@H](C)[C@H](NC(=O)[C@H](CC1CCCCC1)NC(=O)c1cscn1)C(=O)N1CCC2(C=Cc3ccccc32)CC1 |  |
|  |  | CC[C@H](C)[C@H](NC(=O)[C@H](CC(C)C)NC(=O)[C@@H](N)CO)C(=O)NCC(=O)N[C@@H](CCCNC(=N)N)C(=O)N[C@@H](CC(C)C)C(N)=O (H-SLIGRL-NH2) | half-life at 10 µM [12]: 20 min; half-life at 10 µM [5]: 15 min |
|  | 30 to 50% | CC[C@H](C)[C@H](NC(=O)[C@H](CC1CCCCC1)NC(=O)c1ccno1)C(=O)N1CCN(c2ccccc2)CC1 |  |
| 43 to 69% |  | CC[C@H](C)[C@H](NC(=O)[C@H](CC1CCCCC1)NC(=O)c1ccno1)C(=O)N1CCC(c2ccccc2C(F)(F)F)CC1 |  |
| 10 to 16% |  | CC(C)(C)[C@H](NC(=O)[C@H](CC1CCCCC1)NC(=O)c1ccno1)C(=O)N1CCC2(C=Cc3ccccc32)CC1 |  |
|  | 30 to 50% | CC[C@H](C)[C@H](NC(=O)[C@H](CC1CCCCC1)NC(=O)c1ccno1)C(=O)N1CCN(Cc2ccc(F)cc2)CC1 |  |
|  | 53 to 81% | NC(=O)C[C@H](NC(=O)[C@H](CC1CCCCC1)NC(=O)c1ccno1)C(=O)N1CCC2(C=Cc3ccccc32)CC1 |  |
| 10 to 16% |  | O=C(N[C@@H](CC1CCCCC1)C(=O)N[C@@H](CC1CCCCC1)C(=O)N1CCC2(C=Cc3ccccc32)CC1)c1ccno1 |  |
|  | 62 to 70% | CC[C@H](C)[C@H](NC(=O)[C@H](CC1CCCCC1)NC(=O)c1ccno1)C(=O)N1CCC2(CC1)CC(=O)c1ccccc1O2 | EC50 [8]: 700 to 1800 nM |
| 43 to 69% |  | CC[C@H](C)[C@H](NC(=O)[C@H](CC1CCCCC1)NC(=O)c1ccno1)C(=O)N1CCC(O)(c2ccc(C(F)(F)F)cc2C(F)(F)F)CC1 |  |
|  | 30 to 50% | CC[C@H](C)[C@H](NC(=O)[C@H](CC1CCCCC1)NC(=O)c1ccno1)C(=O)N1CCN(c2ccc(F)cc2)CC1 |  |
| 43 to 69% |  | CC[C@H](C)[C@H](NC(=O)[C@H](CC1CCCCC1)NC(=O)c1ccno1)C(=O)N1CCC(c2cc(OC)ccc2OC)CC1 |  |

Reference: ChEMBL document CHEMBL3865852, “PAR2 Modulators Derived from GB88” (ACS Med Chem Lett, 2016)
